This passage reports IC50 and half-life results from patent publication US20220380378A1 (ESSA Pharma, Inc., priority 2021, published 2022).

Usually IC50 stands for the midpoint of a concentration-inhibition curve.

Data set [1] has as its target T1, androgen receptor (AR) (Homo sapiens, UniProt P10275, T878A).
T1 sequence (P10275 1-920 T878A): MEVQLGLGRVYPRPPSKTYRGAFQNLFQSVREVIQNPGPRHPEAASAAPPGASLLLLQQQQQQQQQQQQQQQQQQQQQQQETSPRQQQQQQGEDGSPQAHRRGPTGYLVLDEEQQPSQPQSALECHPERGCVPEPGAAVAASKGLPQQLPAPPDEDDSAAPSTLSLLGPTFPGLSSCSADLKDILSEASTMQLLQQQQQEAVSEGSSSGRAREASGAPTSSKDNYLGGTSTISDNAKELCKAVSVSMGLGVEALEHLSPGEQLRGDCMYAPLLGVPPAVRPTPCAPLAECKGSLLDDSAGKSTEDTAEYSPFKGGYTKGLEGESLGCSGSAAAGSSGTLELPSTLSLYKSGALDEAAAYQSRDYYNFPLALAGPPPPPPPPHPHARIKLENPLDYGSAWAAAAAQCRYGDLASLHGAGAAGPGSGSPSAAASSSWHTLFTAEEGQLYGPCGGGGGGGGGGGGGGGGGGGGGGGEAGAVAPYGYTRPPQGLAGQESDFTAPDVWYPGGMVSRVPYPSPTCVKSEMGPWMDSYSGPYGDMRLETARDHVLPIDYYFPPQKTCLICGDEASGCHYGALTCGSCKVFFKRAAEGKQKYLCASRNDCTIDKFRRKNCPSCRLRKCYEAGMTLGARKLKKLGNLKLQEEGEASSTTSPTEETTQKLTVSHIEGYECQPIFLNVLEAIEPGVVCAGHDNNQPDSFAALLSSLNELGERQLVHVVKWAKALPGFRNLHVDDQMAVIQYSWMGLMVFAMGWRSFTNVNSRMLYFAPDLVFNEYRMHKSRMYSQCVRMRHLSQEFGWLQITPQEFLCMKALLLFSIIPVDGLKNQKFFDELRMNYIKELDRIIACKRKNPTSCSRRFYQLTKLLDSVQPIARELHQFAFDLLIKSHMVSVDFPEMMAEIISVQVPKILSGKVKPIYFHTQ
As to the kind of experiment: Androgen-induced PSA (6.1 kb)-luciferase reporter assay in LNCaP cells (R1881 1 nM). Conditions: 24 h, read-out: PSA-Luc IC50 Range. Set-up: endogenous in cells; host or cells: LNCaP. Format: cell-based. The essentials: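 LNCaP cells transiently transfected with PSA (6.1 kb)-luciferase for 24 h, pretreated 1 h with compound or DMSO, then stimulated with 1 nM R1881 for 24 h. Firefly luciferase in lysates normalized to protein content; IC50 relative to R1881-induced vehicle activity.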
(Reporter assays use an easily measured gene product as a stand-in for the process of interest.)

A short description of data set [2]: Microsomal stability assay, liver microsome half-life (mouse). The settings on record: pH 7.4; mouse liver microsomes 0.5 mg/mL, 1 μM compound, 37° C.; read-out: Liver microsome T1/2 Mouse. The data set is classed as in vitro ADME. The source says: (§1) Microsomal Stability Assay: Microsomal stability assay is a widely used in vitro model to characterize the metabolic conversion by phase I enzymes, such as cytochrome P450 (CYP) enzymes. Since metabolism is known to be highly variable in different species, microsomal stability assay is commonly run in multiple species. Metabolic stability of testing compound can be evaluated using human, rat, mouse, or other animal liver or intestine microsomes to predict intrinsic clearance.
(§2) The assay was carried out in 96-well microtiter plates at 37° C. Reaction mixtures (25 μL) contained a final concentration of 1 μM test compound, 0.5 mg/mL liver microsomes protein, and 1 mM NADPH and/or 1 mM UDPGA (with alamethicin) in 100 mM potassium phosphate, pH 7.4 buffer with 3 mM MgCl2. The incubation was done with N=1, but duplicate incubation at each time point can be prepared if necessary. At each of the time points (for example, 0, 15, 30, and 60 minutes), 150 μL of quench solution (100% acetonitrile with 0.1% formic acid) with internal standard was transferred to each well. Besides the zero minute controls, mixtures containing the same components except the NADPH can also be prepared as the negative control. Verapamil was included as a positive control to verify assay performance. Plates were sealed, vortexed, and centrifuged at 4° C. for 15 minutes at 4000 rpm. The supernatant is transferred to fresh plates for LC/MS/MS analysis.
(§3) Summarized conditions: [Compound]=1 μM, [LM]=0.5 mg/mL, [NADPH]=1 mM and/or [UDPGA]=1 mM, Buffer=100 mM Potassium Phosphate, pH 7.4 with 3 mM MgCl2, Time=0, 15, 30, and 60 min, and Temperature=37° C.
(§4) All samples were analyzed on LC/MS/MS using an AB Sciex API 4000 instrument, coupled to a Shimadzu LC-20AD LC Pump system. Analytical samples were separated using a Waters Atlantis T3 dC18 reverse phase HPLC column (20 mm×2.1 mm) at a flow rate of 0.5 mL/min. The mobile phase consisted of 0.1% formic acid in water (solvent A) and 0.1% formic acid in 100% acetonitrile (solvent B).
(§5) The extent of metabolism is calculated as the disappearance of the test compound, compared to the 0-min time incubation. Initial rates are calculated for the compound concentration and used to determine half-life (t½). […]
(In general: Microsomes from liver hold many membrane-bound enzymes, among them those of drug oxidation.)

A short description of data set [3]: Microsomal stability assay, liver microsome half-life (dog). Format: in vitro ADME. Conditions: pH 7.4; dog liver microsomes 0.5 mg/mL, 1 μM compound, 37° C.; read-out: Liver microsome T1/2 Dog.
Excerpt: as §1, §2, §3, §4
(§6) The extent of metabolism is calculated as the disappearance of the test compound, compared to the 0-min time incubation. Initial rates are calculated for the compound concentration and used to determine half-life (t½).

Data set [4] in a line: Microsomal stability assay, liver microsome half-life (human). The data set is classed as in vitro ADME. Conditions: pH 7.4; human liver microsomes 0.5 mg/mL, 1 μM compound, 37° C.; read-out: Liver microsome T1/2 Human.
Excerpt: as §1, §2, §3, §4, §5

Data set [5] in a line: Microsomal stability assay, liver microsome half-life (monkey). The data set is classed as in vitro ADME. Conditions: pH 7.4; monkey liver microsomes 0.5 mg/mL, 1 μM compound, 37° C.; read-out: Liver microsome T1/2 Monkey.
Excerpt: as §1, §2, §3, §4, §6

Data set [6] in a line: Microsomal stability assay, liver microsome half-life (rat). Conditions: pH 7.4; rat liver microsomes 0.5 mg/mL, 1 μM compound, 37° C.; read-out: Liver microsome T1/2 Rat. Format: in vitro ADME.
Excerpt: as §1, §2, §3, §4, §5

As for `CC(C)(c1ccc(OCC23CC(NS(C)(=O)=O)(C2)C3)cc1)c1cc(Cl)c(OCCCl)c(C#N)c1` [Compound A132, N-(3-((4-(2-(3-chloro-4-(2-chloroethoxy)-5-cyanophenyl)propan-2-yl)phenoxy)methyl)bicyclo[1.1.1]pentan-1-yl)methanesulfonamide], the IC50 in data set [1] was in the range of 500 to 2000 nM. Further, the half-life at 1 μM in data set [2] is more than 2 h; in data set [3], more than 2 h; in data set [4], more than 2 h; in data set [5], 0.95 h; in data set [6], 1.62 h.

`CS(=O)(=O)N[C@H]1C[C@H](COc2ccc3c(ccn3-c3cc(Cl)c(OCCCl)c(C#N)c3)c2)C1` [Compound A135]: in data set [1], the concentration for half-maximal inhibition (IC50) was 500 to 2000 nM. Also, the half-life at 1 μM in data set [2] is 1.97 h; in data set [3] it was more than 2 h; in data set [4], more than 2 h; in data set [5] it was 0.733 h; in data set [6], more than 2 h.

In the case of `CC(c1cc(Cl)c(OCCCl)c(C#N)c1)n1cc(-c2ccc3nc(NS(C)(=O)=O)ncc3c2)cn1` (stereo not drawn) [Compound A141], the IC50 in data set [1] is more than 2000 nM. The half-life at 1 μM in data set [2] is more than 2 h; in data set [3] it was more than 2 h; in data set [4] it was more than 2 h; in data set [5] it was 1.1 h; in data set [6], more than 2 h.

As for `CS(=O)(=O)Nc1ncc(Cn2ncc3c(-c4cc(Cl)c(OCCCl)c(C#N)c4)cccc32)cn1` [Compound A144], the IC50 in data set [1] lay in the range of 500 to 2000 nM. Also, the half-life at 1 μM in data set [2], in data set [3], in data set [4], in data set [5] and in data set [6] was more than 2 h in each case.

As for `CC(C)(c1ccc(OCc2ccnc(NS(C)(=O)=O)n2)cc1)c1ccc(OCC(O)CCl)cc1` (stereo not drawn) [Compound A150, N-(4-((4-(2-(4-(3-chloro-2-hydroxypropoxy)phenyl)propan-2-yl)phenoxy)methyl)pyrimidin-2-yl)methanesulfonamide], the half-maximal inhibitory concentration (IC50) in data set [1] was less than 500 nM. Besides, the half-life at 1 μM in data set [2], in data set [3], in data set [4], in data set [5] and in data set [6] was more than 2 h each time.

Consider `CS(=O)(=O)NC1CCN(Cc2ccc3c(ccn3-c3cc(Cl)c(OCCCl)c(C#N)c3)c2)CC1` [Compound A169], for which, in data set [1], the IC50 was more than 2000 nM. In addition, the half-life at 1 μM in data set [2], in data set [3], in data set [4], in data set [5] and in data set [6] was more than 2 h in each case.

In the case of `CC(C)(c1ccc(-c2ccc3nc(NS(C)(=O)=O)nc(N)c3c2)cc1)c1cc(Cl)c(OCCCl)c(C#N)c1` [Compound A173], the IC50 in data set [1] is less than 500 nM. In addition, the half-life at 1 μM in data set [2], in data set [3], in data set [4], in data set [5] and in data set [6] was more than 2 h in each case.

Turning to `CC(Oc1ccc2c(ccn2-c2cc(Cl)c(OCCCl)c(C#N)c2)c1)C12CC(NS(C)(=O)=O)(C1)C2` (stereo not drawn) [Compound A180], in data set [1], the IC50 was in the range of 500 to 2000 nM. Also, the half-life at 1 μM in data set [2] is more than 2 h; in data set [3] it was 0.967 h; in data set [4], more than 2 h; in data set [5], 0.75 h; in data set [6] it was more than 2 h.

For `CS(=O)(=O)NC1CCN(CCc2ccc3c(ccn3-c3cc(Cl)c(OCCCl)c(C#N)c3)c2)CC1` [Compound A187], the IC50 in data set [1] lay within 500 to 2000 nM. Moreover, the half-life at 1 μM in data set [2] is more than 2 h; in data set [3], more than 2 h; in data set [4], more than 2 h; in data set [5], 1.47 h; in data set [6], more than 2 h.

Consider `CC(C)(c1ccc(-c2ccc3nc(NS(C)(=O)=O)ccc3n2)cc1)c1cc(Cl)c(OCCCl)c(C#N)c1` [Compound A191], for which the IC50 in data set [1] is less than 500 nM. The half-life at 1 μM in data set [2], in data set [3], in data set [4], in data set [5] and in data set [6] was more than 2 h throughout.

`CC(C)(c1ccc(-c2cnc3nc(NS(C)(=O)=O)ccc3c2)cc1)c1cc(Cl)c(OCCCl)c(C#N)c1` [Compound A194]: in data set [1], the IC50 was less than 500 nM. Moreover, the half-life at 1 μM is more than 2 h in data set [2]; 1.48 h in data set [3]; 1.97 h in data set [4]; more than 2 h in data set [5]; more than 2 h in data set [6].

Take `CC(C)(c1ccc(-c2cnc3c(c2)CCC3NS(C)(=O)=O)cc1)c1cc(Cl)c(OCCCl)c(C#N)c1` (stereo not drawn) [Compound A217]: in data set [1], the IC50 was in the range of 500 to 2000 nM. Further, the half-life at 1 μM in data set [2] was more than 2 h; in data set [3] it was 0.833 h; in data set [4], more than 2 h; in data set [5] it was 0.933 h; in data set [6], 0.433 h.

For the compound `CS(=O)(=O)NC1CCN(Cc2ccc3c(ccn3-c3cc(Cl)c(OCCCl)c(C#N)c3)c2)CC1(F)F` (stereo not drawn) [Compound A239], the IC50 in data set [1] lay within 500 to 2000 nM. Moreover, the half-life at 1 μM in data set [2] was more than 2 h; in data set [3], more than 2 h; in data set [4], 1.88 h; in data set [5], 0.65 h; in data set [6], more than 2 h.

On to `CS(=O)(=O)NC12CC(COc3ccc4c(c3)CCC4c3cc(Cl)c(OCCCl)c(C#N)c3)(C1)C2` (stereo not drawn) [Compound A246], for which, in data set [1], the IC50 lay within 500 to 2000 nM. The half-life at 1 μM is more than 2 h in data set [2]; 1.32 h in data set [3]; 1.48 h in data set [4]; 1.3 h in data set [5]; 1.08 h in data set [6].

In the case of `CC(C)(c1ccc(-c2ccc3nc(NS(C)(=O)=O)oc3c2)cc1)c1cc(Cl)c(OCCCl)c(C#N)c1` [Compound A254], the 50% inhibitory concentration (IC50) in data set [1] was 500 to 2000 nM. Moreover, the half-life at 1 μM in data set [2], in data set [3], in data set [4], in data set [5] and in data set [6] was more than 2 h each time.
